We go through eight compounds from patent publication US20210113529A1, “MEDICINE FOR PREVENTING OR TREATING OPHTHALMIC DISEASE ASSOCIATED WITH ENHANCED INTRAOCULAR NEOVASCULARIZATION AND/OR INTRAOCULAR VASCULAR PERMEABILITY” (KYOTO UNIVERSITY, priority 2018, published 2021).

Data set [1] has as its system human retinal vascular endothelial cells (HRMECs). Kind of data set: Permeability of human retinal vascular endothelial cells (Transwell, FITC-dextran). Type of data set: cell-based. Conditions: HRMECs in Transwell; 0.3 nM, 3 nM or 30 nM; 60 minutes pre-culture, 60 minutes after FITC-dextran (40 kDa). As to the method:
The upper chamber of Transwell (diameter: 6.5 mm, pore size: 0.4 μm: Corning Incorporated) coated with collagen and fibronectin was seeded with human retinal vascular endothelial cells (HRMECs) (Cell Systems) at a cell density of 5×10^4 cells/well, and the cells were cultured in Endothelial Cell Growth Medium MV 2 (PromoCell GmbH) under a 5% CO2 atmosphere at 37° C. for 6 days. Then, to the upper chamber and lower chamber of the Transwell, Compound 1 at a final concentration of 0 nM, 0.3 nM, 3 nM, or 30 nM, which had been prepared using 0.001% dimethyl sulfoxide-containing Endothelial Cell Growth Medium MV 2 as a vehicle, was added, and culture was continued. A well to which only the vehicle was added was used as a control. After 60 minutes of culture, 1 mg/mL of fluorescein isothiocyanate (FITC)-dextran (40 kDa: Sigma-Aldrich) was added to the upper chamber of the Transwell, and 60 minutes later, the fluorescence intensity of the medium in the lower chamber was measured to measure the amount of FITC-dextran permeating the lower chamber.

Data set [2] concerns the target T1, S1P4 receptor (Homo sapiens, UniProt O95977).
T1 sequence (O95977 1-384): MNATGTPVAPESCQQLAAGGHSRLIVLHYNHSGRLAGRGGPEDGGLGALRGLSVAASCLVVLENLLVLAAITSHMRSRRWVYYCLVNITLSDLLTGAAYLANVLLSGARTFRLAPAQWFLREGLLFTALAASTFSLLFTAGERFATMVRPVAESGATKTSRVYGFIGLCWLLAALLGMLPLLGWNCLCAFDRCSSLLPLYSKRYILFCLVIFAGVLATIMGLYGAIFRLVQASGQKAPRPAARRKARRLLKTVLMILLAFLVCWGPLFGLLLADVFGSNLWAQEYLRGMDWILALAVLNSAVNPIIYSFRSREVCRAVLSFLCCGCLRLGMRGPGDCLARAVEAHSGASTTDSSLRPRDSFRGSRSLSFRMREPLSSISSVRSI
Conditions: GTP[γ35S] binding assay; report PLoS One, 2014, 9(10), e110819; read-out: EC50 for S1P4 receptor agonist activity; cited from earlier work.

For data set [3], the system named is laser-induced choroidal neovascularization (CNV) model. Kind of data set: Laser-induced CNV model: fluorescein angiography (FA) grade. Format: in vivo, mice. The settings on record: 0.3 mg/kg orally once daily; Day 14 (Comparative Example 1). The protocol:
A Mydrin-P ophthalmic solution (Santen Pharmaceutical Co., Ltd., Mydrin is a trademark) was dropped into the right eye of 8-week-old mice (Japan SLC, Inc., C56BL/6J strain) to cause mydriasis. A solution obtained by diluting a 7:1 mixed anesthetic solution of ketamine and xylazine 10-fold with physiological saline was administered at 10 mL/kg into the femoral muscle. After that, a 0.1% Hyalein (trademark) ophthalmic solution (Santen Pharmaceutical Co., Ltd.) was dropped into the eye so as to prevent the eyeball from drying. […]
Sampling was performed on the 14th day after the laser irradiation. The mice were anesthetized with 10 mL/kg of a solution obtained by diluting a 7:1 mixed anesthetic solution of ketamine and xylazine 10-fold with physiological saline, and then 0.1 mL of a 10-fold dilution of fluorescein (Alcon Japan Ltd.) was administered into the tail vein of the mice, followed by fluorescence fundus photography using Micron 4 (Phoenix Research Laboratories, Inc. Pleasanton, Calif., USA).
In FIG. 1 (a), Day 0 indicates images taken on the day of the laser irradiation, and Day 14 indicates images taken on the 14th day. In addition, for the image of each group on Day 14, an FA grade was determined for each laser irradiation site in accordance with grade criteria shown in Table 1 to evaluate the leakage of a fluorescent dye from a neovascularization site. […]

For data set [4] the test system is unchanged. Description: Laser-induced CNV model: area of CNV in choroidal flat mount. The settings on record: 0.3 mg/kg orally once daily; Day 14 (Comparative Example 1; BZ-X710, Image J). Format: in vivo, mice. The protocol: After fluorescence fundus photography had been performed as described above in the section (1), 0.5 mL of fluorescein isothiocyanate dextran (FITC-dextran; 20 mg/mL, Sigma-Aldrich) was administered into the tail vein of the mice. The mice were euthanized by cervical dislocation, and the eyeball was extirpated. The extirpated eyeball was fixed in a 4% paraformaldehyde phosphate buffer for 12 hours. After that, the cornea and lens were excised under a microscope, and the remaining vitreous artery was removed with forceps. Further, the retina was removed, and the choroid was notched 8 points and embedded with Fluoromount (Diagnostic BioSystems) in a flat state to generate a choroidal flat mount specimen. The choroidal flat mount was photographed using a confocal laser scanning microscope (FLUOVIEW FV10i; Olympus, Tokyo, Japan). Next, on the basis of the photographed image, the CNV was encircled using analysis software OLYMPUS FLUOVIEW FV10i (Olympus), and the area thereof was determined as the area of CNV (μm^2). All analyses were performed in a blinded manner. After fluorescence fundus photography had been performed as described above in the section (1), a choroidal flat mount specimen was generated by the same method as in Example 1. The choroidal flat mount was photographed using an all-in-one fluorescence microscope (BZ-X710; Keyence, Osaka, Japan). Next, on the basis of the photographed image, the CNV was encircled using image editing software Image J, and the area thereof was determined as the area of CNV (μm^2). All analyses were performed in a blinded manner.

Data set [5] can be described thus: Body weight in CNV model. Type of data set: in vivo, mice. Conditions: oral once daily dosing, vs vehicle group. The source says: A case in which FA was unable to be performed owing to cloudiness caused by a flaw in the eye produced before the FA evaluation and a case in which CNV was connected at the time of the evaluation of the area of CNV were excluded from analysis, and the above-mentioned results were each calculated as a mean of 11 or 12 mice in each group. […] A case in which FA was unable to be performed owing to cloudiness caused by a flaw in the eye produced before the FA evaluation and a case in which CNV was connected at the time of the evaluation of the area of CNV were excluded from analysis, and the above-mentioned results were each calculated as a mean of 12 mice in each group.

Data set [6] concerns the target S1P3 receptor (Homo sapiens, UniProt Q99500). Description: GTP[γ35S] binding assay, S1P3 receptor agonist activity. Type of data set: biochemical.
Data set [7] concerns the target S1P1 receptor (Homo sapiens, UniProt P21453). Kind of data set: GTP[γ35S] binding assay, S1P1 receptor agonist activity.

Sequence of S1P3 receptor (Q99500 whole entry): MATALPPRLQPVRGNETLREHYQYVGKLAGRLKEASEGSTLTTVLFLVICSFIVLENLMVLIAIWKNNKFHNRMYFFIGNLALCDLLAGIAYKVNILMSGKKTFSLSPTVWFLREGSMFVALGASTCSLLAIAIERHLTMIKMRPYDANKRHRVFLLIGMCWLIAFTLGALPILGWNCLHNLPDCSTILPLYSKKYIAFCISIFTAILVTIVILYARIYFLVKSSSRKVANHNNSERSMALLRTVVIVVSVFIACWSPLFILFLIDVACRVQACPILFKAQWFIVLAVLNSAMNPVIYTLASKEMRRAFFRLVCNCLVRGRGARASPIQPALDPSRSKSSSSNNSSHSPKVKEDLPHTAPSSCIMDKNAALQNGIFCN
Sequence of S1P1 receptor (P21453 whole entry): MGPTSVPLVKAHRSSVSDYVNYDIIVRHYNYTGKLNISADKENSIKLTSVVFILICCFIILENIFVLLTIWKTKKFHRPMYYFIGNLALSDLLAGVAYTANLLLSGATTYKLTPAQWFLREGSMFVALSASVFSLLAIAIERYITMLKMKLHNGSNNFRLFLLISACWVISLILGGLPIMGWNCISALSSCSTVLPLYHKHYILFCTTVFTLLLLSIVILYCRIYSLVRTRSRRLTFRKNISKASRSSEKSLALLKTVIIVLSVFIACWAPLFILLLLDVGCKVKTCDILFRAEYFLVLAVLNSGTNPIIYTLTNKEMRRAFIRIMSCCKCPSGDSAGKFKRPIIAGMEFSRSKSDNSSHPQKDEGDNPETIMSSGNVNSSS

As for `CCC/N=C1\S/C(=C\c2ccc(OC[C@H](O)CO)c(Cl)c2)C(=O)N1c1ccccc1C` [Compound 5, (2Z,5Z)-5-({3-chloro-4-[(2R)-2,3-dihydroxypropoxy]phenyl}methylidene)-3-(2-methylphenyl)-2-(propylimino)-1,3-thiazolidin-4-one], the “amount of FITC-dextran permeating the lower chamber (fluorescence intensity)” value in data set [1] is recorded as “significantly decreased the amount of FITC-dextran permeating the lower chamber”.
Consider `CCCCCCCCc1ccc(CCC(N)(CO)COP(=O)(O)O)cc1` (stereo not shown) [FTY720-P, 2-amino-2-(hydroxymethyl)-4-(4-octylphenyl)butyl dihydrogenphosphate, reference compound], for which, in data set [2], the concentration for a half-maximal effect (EC50) was 2.2 nM.
Take `NC(CO)(CCc1ccc(Sc2cccc(OCc3ccccc3)c2)cc1Cl)COP(=O)(O)O` (stereo not shown) [Compound 7, 2-amino-4-(4-{[3-(benzyloxy)phenyl]sulfanyl}-2-chlorophenyl)-2-(hydroxymethyl)butyl dihydrogen phosphate]: the “amount of FITC-dextran permeating the lower chamber (fluorescence intensity)” value in data set [1] is listed as “significantly decreased the amount of FITC-dextran permeating the lower chamber”.
With `CCCCCCCCc1ccc(CCC(N)(CO)CO)cc1.Cl` [FTY720, 2-amino-2-[2-(4-octylphenyl)ethyl]propane-1,3-diol monohydrochloride, reference compound], the “FA grade as compared to the vehicle group” value in data set [3] is “a significant lowering in FA grade was not found”. Further, the “area of CNV” value in data set [4] was “not found to significantly decrease the area of CNV”. In addition, the “change in body weight between the groups before sampling” value in data set [5] is listed as “a significant change in body weight between the groups before sampling was not found”.
For the compound `CCc1cc(/C(C)=N/OCc2ccc(C3CCCCC3)c(C(F)(F)F)c2)ccc1CN1CC(C(=O)O)C1` [Compound 3, 1-({4-[(1E)-N-{[4-cyclohexyl-3-(trifluoromethyl)phenyl]methoxy}ethanimidoyl]-2-ethylphenyl}methyl)azetidine-3-carboxylic acid], in data set [1], the “amount of FITC-dextran permeating the lower chamber (fluorescence intensity)” value is “significantly decreased the amount of FITC-dextran permeating the lower chamber”.
As for `Cl.O=C(O)C1CCN(CC2=Cc3ccc(OCc4ccc(OCC(F)(F)F)c(C(F)(F)F)c4)cc3OC2)CC1` [Compound 2, 1-[(7-{[4-(2,2,2-trifluoroethoxy)-3-(trifluoromethyl)phenyl]methoxy}-2H-1-benzopyran-3-yl)methyl]piperidine-4-carboxylic acid monohydrochloride], the results for the EC50 in data set [6] and in data set [7] were 1760 nM and 13.4 nM, respectively. Besides, the “EC50 for S1P3 receptor agonist activity as compared to that for the S1P1 receptor” value in data set [6] is on record as no less than 100 fold. The “amount of FITC-dextran permeating the lower chamber (fluorescence intensity)” value in data set [1] is recorded as “significantly decreased the amount of FITC-dextran permeating the lower chamber”.
As to `CC(C)Oc1ccc(-c2nc(-c3cccc4c3CC[C@@H]4NCCO)no2)cc1C#N` [Compound 4, 5-(3-{(1S)-1-[(2-hydroxyethyl)amino]-2,3-dihydro-1H-inden-4-yl}-1,2,4-oxadiazol-5-yl)-2-[(propan-2-yl)oxy]benzonitrile], the “amount of FITC-dextran permeating the lower chamber (fluorescence intensity)” value in data set [1] is “significantly decreased the amount of FITC-dextran permeating the lower chamber”.
Same read-out and setting: to `O=C(O)C[C@H]1CCc2c1[nH]c1ccc(OCc3ccc(C4CCCC4)c(C(F)(F)F)c3)cc21` [Compound 6, [(3R)-7-{[4-cyclopentyl-3-(trifluoromethyl)phenyl]methoxy}-1,2,3,4-tetrahydrocyclopenta[b]indol-3-yl]acetic acid] belongs “significantly decreased the amount of FITC-dextran permeating the lower chamber”.
